Measured values as given in PubChem BioAssay (NCI).
Values joined by “and” are separate entries in the source; they are usually repeats but may differ in a detail not shown here. Identical values can stand only once.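 These data come from cells grown in 96-well plates and exposed to compound for 48 hours at five concentrations. Here, GI50 denotes the concentration required for 50% inhibition of growth. TGI is the concentration that stops growth completely.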

test system: MDA-MB-468 breast; test: growth of human tumour cells (NCI), 48 h

In order of falling GI50:
1. CC(C)c1ccc(Nc2ccc3c(OCCCN4CCN(C)CC4)cccc3n2)cc1  12300 nM
2. COc1ncnc(C2CC2)c1-c1ncc2cnn(Cc3ccc(-c4nc(C(F)(F)F)cn4C(C)C)cc3)c2n1  3770 nM
3. O=c1n(CC2CO2)c(=O)n(CC2CO2)c(=O)n1CC1CO1 (centres undefined)  2260 nM
4. C[C@H]1c2cccc(O)c2C(O)=C2C(=O)[C@]3(O)C(O)=C(C(N)=O)C(=O)[C@@H](N(C)C)[C@@H]3[C@@H](O)[C@@H]21  2050 nM
5. NC(=NCCCOc1ccc(Cl)cc1)Nc1ccc(C(F)(F)F)cc1  1630 nM
6. COc1ccc(C2CC(c3cccc(Nc4ccncc4)c3)=NN2c2cc(Cl)cc(Cl)c2)cc1 (centres undefined)  1630 nM
7. COc1cc(Nc2cn[nH]c2-c2ccc(Cl)cc2)cc(OC)c1OC  1600 nM
8. C=C(F)C(=O)N1CCN(c2nc(OC[C@@H]3CCCN3C)nc3c2CCN(c2cccc4cccc(Cl)c24)C3)C[C@@H]1CC#N  1220 nM
9. Cc1nc(N)sc1-c1ccnc(Nc2ccc(N3CCOCC3)cc2)n1  611 nM
10. COc1ccc2c(c1)C(C)Cc1c(Cl)ncnc1N2C (centres undefined)  276 nM
11. CCC[CH2][Sn]([CH2]CCC)([CH2]CCC)[O]C(=O)CC  127 nM

Going from `COc1ccc2c(c1)C(C)Cc1c(Cl)ncnc1N2C` (centres undefined) to `COc1cc(Nc2cn[nH]c2-c2ccc(Cl)cc2)cc(OC)c1OC`, the TGI rises from 804 nM to 6400 nM (8-fold).

Compared with `NC(=NCCCOc1ccc(Cl)cc1)Nc1ccc(C(F)(F)F)cc1`, `CC(C)c1ccc(Nc2ccc3c(OCCCN4CCN(C)CC4)cccc3n2)cc1` is 7.2-fold higher in TGI: 3610 nM for the first, 26000 nM for the second.

First: C[C@H]1c2cccc(O)c2C(O)=C2C(=O)[C@]3(O)C(O)=C(C(N)=O)C(=O)[C@@H](N(C)C)[C@@H]3[C@@H](O)[C@@H]21
Second: C=C(F)C(=O)N1CCN(c2nc(OC[C@@H]3CCCN3C)nc3c2CCN(c2cccc4cccc(Cl)c24)C3)C[C@@H]1CC#N
The TGI of the first is 2.5-fold higher: 6440 nM for the first, 2580 nM for the second.

First: COc1ccc(C2CC(c3cccc(Nc4ccncc4)c3)=NN2c2cc(Cl)cc(Cl)c2)cc1 (centres undefined)
Second: Cc1nc(N)sc1-c1ccnc(Nc2ccc(N3CCOCC3)cc2)n1
The TGI of the first is lower: 3290 nM for the first, over 100000 nM for the second.

Going from `O=c1n(CC2CO2)c(=O)n(CC2CO2)c(=O)n1CC1CO1` (centres undefined) to `COc1ncnc(C2CC2)c1-c1ncc2cnn(Cc3ccc(-c4nc(C(F)(F)F)cn4C(C)C)cc3)c2n1`, the TGI rises from 11300 nM to 38300 nM (3.4-fold).

With `CCC[CH2][Sn]([CH2]CCC)([CH2]CCC)[O]C(=O)CC` the TGI was 258 nM.

`CC[C@]12C=CCN3CC[C@@]4(c5ccc(OC)cc5N(C)[C@H]4[C@@](O)(C(=O)OC)[C@@H]1OC(=O)CCC[P+](c1ccccc1)(c1ccccc1)c1ccccc1)[C@@H]32` was tested, and the GI50 was 123 nM and 217 nM.

For `CC[C@]12C=CCN3CC[C@@]4(c5ccc(OC)cc5N(C)[C@H]4[C@@](O)(C(=O)OC)[C@@H]1OC(=O)CCC[P+](c1ccccc1)(c1ccccc1)c1ccccc1)[C@@H]32`, the TGI was 377 nM and 653 nM.
